{
  "source": "patent US10543189B2",
  "about": "“2-acetylnaphtho[2,3-b]furan -4,9-dione for use on treating cancer” (Boston Biomedical, Inc., priority 2013, dated 2020)",
  "key": {"[1]": {"tested_on": "solid tumor that is metastatic, unresectable, or recurrent", "assay": "Phase I dose escalation trial: preliminary antitumor activity", "format": "in vivo, human", "protocol": "Each cycle consists of twice-daily oral administration of the compound for 4 weeks. Cycles were repeated every 4 weeks (28 days) until progression of disease, unacceptable toxicity, or another discontinuation criterion is met. The dose escalation trial was conducted as open label and multicenter trial. A modified Simon accelerated titration scheme was used for dose escalation.\nThe primary objective of the trial was to determine the safety, tolerability, and recommended phase II dose (RP2D). The secondary objectives of the trial were to determine the pharmacokinetic profile of the compound, pharmacodynamics of the compound, and preliminary antitumor activity of the compound.\nThe inclusion criteria included histologically or cytologically confirmed solid tumor that is metastatic, unresectable, or recurrent; >18 years of age; Measurable disease by RECIST; and Kamofsky ≥70%. The exclusion criteria included chemotherapy, radiotherapy, immunotherapy or investigational agent within 4 weeks of first dose; surgery within 4 weeks of first dose; and known brain metastases."}, "[2]": {"assay": "Safety of highly pure Compound 1 in animal experiments", "format": "in vivo", "settings": "highly pure Compound 1, mice", "procedure": "For example, FIG. 13 of WO 2011/116398 and WO 2011/116399 illustrates the toxicity observed with a composition with about 90% purity for Compound 1, while FIG. 14 of WO 2011/116398 and WO 2011/116399 illustrates that the highly pure compositions having about 95% or greater purity for Compound 1 are safe and effective. In a Phase 1 study, the dose of Compound 1 was escalated from 20 mg to 2000 mg/day, and a maximum tolerated dose (MTD) not reached. […] The clinical safety profile of the substantially pure compositions of Compound 1 is among the best for oncology drugs in history."}, "[3]": {"settings": "Total Daily Dose 20 mg, Colon adencarcinoma"}, "[4]": {"settings": "Total Daily Dose 400 mg, Colon adenocarcinoma"}, "[5]": {"settings": "Total Daily Dose 400 mg, Ovarian carcinoma"}, "[6]": {"settings": "Total Daily Dose 500 mg, Breast carcinoma (triple negative)"}},
  "note": "Values joined by “and” are separate entries in the source; they are usually repeats but may differ in a detail not shown here. Equal entries are not always repeated.",
  "data": [
    {"molecule": "CC(=O)c1cc2c(o1)C(=O)c1ccccc1C2=O", "note": "[Compound 1, 2-acetylnaphtho[2,3-b]furan-4,9-dione]", "values": [
      {"measurement": "antitumor activity in a kidney with colon cancer lesions", "setting": "[1]; 20 mg QD, very high concentration of the drug in urine", "value": "signs of particularly potent antitumor activity"},
      {"measurement": "regression of a colon cancer metastatic lesion to kidney", "setting": "[1]; Patient 0001", "value": "complete regression"},
      {"measurement": "disease control (disease stabilization and tumor regression), patients evaluable for tumor response", "setting": "[1]; Phase I, tumors refractory to chemotherapies", "value": 65, "unit": "%"},
      {"measurement": "Weeks on Study", "setting": "[1]; [3]", "value": 76, "unit": "weeks"},
      {"measurement": "regression", "setting": "[1]; [3]", "value": 22, "unit": "%"},
      {"measurement": "Weeks on Study", "setting": "[1]; Total Daily Dose 80 mg, Head and fleck carcinoma", "value": 17, "unit": "weeks"},
      {"measurement": "Weeks on Study", "setting": "[1]; Total Daily Dose 320 mg, Colon adenocarcinoma (two patients)", "value": "24 weeks and 12 weeks"},
      {"measurement": "CEA", "setting": "[1]; [4]", "value": 50, "unit": "%"},
      {"measurement": "Weeks on Study", "setting": "[1]; [4]", "value": 11, "unit": "weeks"},
      {"measurement": "Weeks on Study", "setting": "[1]; Total Daily Dose 400 mg, Gastric adenocarcinoma", "value": 19, "unit": "weeks"},
      {"measurement": "CA125", "setting": "[1]; [5]", "value": "CA125 normalization"},
      {"measurement": "Weeks on Study", "setting": "[1]; [5]", "value": 16, "unit": "weeks"},
      {"measurement": "Weeks on Study", "setting": "[1]; [6]", "value": 29, "unit": "weeks"},
      {"measurement": "outcome after surgical resection of remaining hollowed lesion", "setting": "[1]; [6]", "value": "resected; patient disease free)"},
      {"measurement": "Weeks on Study", "setting": "[1]; Total Daily Dose 800 mg, Chondrosarocoma", "value": 13, "unit": "weeks"},
      {"measurement": "Weeks on Study", "setting": "[1]; Total Daily Dose 1000 mg, Adrenocarticoid carcinoma", "value": 17, "unit": "weeks"},
      {"measurement": "Weeks on Study", "setting": "[1]; Total Daily Dose 1000 mg, Colon: adencarcinoma", "value": 16, "unit": "weeks"},
      {"measurement": "Weeks on Study", "setting": "[1]; Total Daily Dose 1400 mg, Melanona", "value": 16, "unit": "weeks"},
      {"measurement": "adverse effects", "setting": "[2]", "value": "No signs of any adverse effects"}
    ]}
  ]
}
